PMC10600247, “Impact of C- and N-terminal protection on the stability, metal chelation and antimicrobial properties of calcitermin” (Scientific Reports, 2023)
Residues, ends and D or L forms follow the SMILES beside them.

Key:
E. coli (ATCC 25922) = assay: In vitro anti-E. coli CFU assay; assay type: cell-based, Escherichia coli; settings: pH 5.4; for mean CFU number ± S.D.: per 0.1 mL
Method: (§1) All microbes were grown at 37 °C in Tryptic Soy Broth (TSB; Biolife, Milan, Italy) or Tryptic Soy Agar plates (TSA, Biolife, Milan, Italy). Peptides were tested at a final concentration C = 0.128, 0.064, 0.032 mg/mL, in the presence or absence of ZnCl2 or CuCl2, at a M:L molar ratio 0.9:1. Briefly, all the microbes were expanded in TSB at 37 °C under agitation for 12 h and then sub-cultured by 1:10 dilution in TSB under the same conditions until reaching OD600nm = 0.3–0.4, as measured by spectrophotometric reading using a GENESYS 10S UV–Vis spectrophotometer (Thermo Scientific, Milan, Italy), corresponding to 0.9–1.2 × 10^7 colony forming units (CFU) per mL, 1.5–2 × 10^8 CFU/mL and 2.4–3.2 × 10^8 CFU/mL, for C. albicans, S. aureus and E. coli respectively. The cultures were then centrifuged at 4500 rpm for 10 min in a SL 8 centrifuge (TX-150 Rotor) (Thermo Scientific, Milan, Italy), and the cellular pellets were washed with PBS pH 5.4. Pelletized cultures were then suspended in 10 mL of PBS pH 5.4, then the suspensions were diluted to a final concentration of 10^4 CFU/mL. Aliquots of 100 µl (corresponding to 10^3 CFU) were seeded in each well of a 96-wells plate. 3 µl of TSB at pH 5.4 were added to each well to obtain a final 1.5% TSB concentration in the culture medium. Peptides were serially diluted in PBS pH 5.4 to C = 0.257, 0.128, and 0.064 mg/mL. ZnCl2 and CuCl2 solutions were added where requested to obtain a M:L ratio 0.9:1. 100 µl of the prepared peptides ± ZnCl2/CuCl2 solutions were then added to each well, obtaining the final 0.128, 0.064 and 0.032 mg/mL peptide concentrations in a total 0.2 mL volume. PBS alone and PBS + ZnCl2/CuCl2 solutions were included as controls. The plates were incubated at 37 °C on a platform rocker with slow stirring for 3 and 24 h. At the end of the incubation times, 100 µl aliquots were taken from each sample and diluted in PBS pH 5.4 to be seeded on TSA plates. Specifically, aliquots were diluted 1:10 at 3 h, and 1:200, 1:100,000 and 1:10 at 24 h, for C. albicans, E. coli, and S. aureus respectively. After incubation for 24 h at 37 °C, grown CFUs were enumerated. Samples were assayed in triplicate in two independent experiments. Student’s t-test was used for the evaluation of significance in biological tests; a p value ≤ 0.05 was considered significant.

in vitro = settings: human, pH 7.4
Method: Each peptide (C = 1·10^–4 M) and metal complex (metal:ligand ratio 1:1) was incubated in a sample containing 1 ml of human plasma (obtained as a pool of 40 individuals from the University Hospital of Ferrara) and 1 ml of ammonium acetate buffer (pH 7.4) at 37 °C. L-phenylalaninol is added as internal standard. At regular time intervals, 200 μl aliquots were taken and enzymatic reaction was blocked by adding 300 μl of HClO4 0.5 M. The sample was then centrifugated for 6 min at 14,000 × g. The supernatant was then filtered and analysed by HPLC. The analytical column was an Agilent Poroshell 120 SB-C18 (4.6 × 100 mm, 2.7 μm, pore size 120 Å). Flow rate = 0.5 ml/min, mobile phase H2O + 0.1% v/v TFA, linear gradient from 0 to 60% of acetonitrile + 0.1% v/v TFA over 30 min for the elution of peptides, temperature 25 °C, detection wavelength 210 nm. […] Informed consent was obtained from all subjects and/or their legal guardian(s) prior to the donation of blood samples. All experimental protocols were approved by the National Research and Research Transversal Processes boards at University of Ferrara. All methods were carried out in accordance with relevant guidelines and regulations.

C. albicans (ATCC 10231) = assay: In vitro antifungal CFU assay; assay type: cell-based, Candida albicans; settings: pH 5.4; for mean CFU number ± S.D.: per 0.1 mL
Method: as §1

[1] = peptide 0.032 mg/mL + CuCl2 (0.9:1), 3 h
[2] = peptide 0.032 mg/mL + CuCl2 (0.9:1), 24 h
[3] = peptide 0.032 mg/mL + ZnCl2 (0.9:1), 3 h
[4] = peptide 0.032 mg/mL + ZnCl2 (0.9:1), 24 h
[5] = peptide 0.064 mg/mL + CuCl2 (0.9:1), 3 h
[6] = peptide 0.064 mg/mL + CuCl2 (0.9:1), 24 h
[7] = peptide 0.064 mg/mL + ZnCl2 (0.9:1), 3 h
[8] = peptide 0.064 mg/mL + ZnCl2 (0.9:1), 24 h
[9] = peptide 0.128 mg/mL + CuCl2 (0.9:1), 3 h
[10] = peptide 0.128 mg/mL + CuCl2 (0.9:1), 24 h
[11] = peptide 0.128 mg/mL + ZnCl2 (0.9:1), 3 h
[12] = peptide 0.128 mg/mL + ZnCl2 (0.9:1), 24 h
[13] = peptide alone 0.032 mg/mL, 24 h
[14] = peptide alone 0.064 mg/mL, 24 h
[15] = peptide alone 0.128 mg/mL, 24 h

Question: Which “mean CFU number ± S.D.” value (E. coli (ATCC 25922); [1]) does the source give for CC[C@H](C)[C@H](NC(=O)[C@H](C)NC(=O)[C@@H](NC(C)=O)C(C)C)C(=O)N[C@@H](C)C(=O)N[C@@H](CC(C)C)C(=O)N[C@@H](CCCCN)C(=O)N[C@@H](C)C(=O)N[C@@H](C)C(=O)N[C@@H](Cc1c[nH]cn1)C(=O)N[C@@H](Cc1ccc(O)cc1)C(=O)N[C@@H](Cc1c[nH]cn1)C(=O)N[C@H](C(=O)N[C@@H](Cc1c[nH]cn1)C(=O)N[C@@H](CCCCN)C(=O)N[C@@H](CCC(=O)O)C(=O)O)[C@@H](C)O [L1, Ac-VAIALKAAHYHTHKE] (Ac-VAIALKAAHYHTHKE-OH) here?
Answer: The value was 372 ± 16 CFU.

Question: What about the “CFU decrease/increase with respect to untreated controls” value (“CFU decrease/increase” for short) (E. coli (ATCC 25922); [2]) of the same compound?
Answer: Its value is -15%.

Question: And the “mean CFU number ± S.D.” value (E. coli (ATCC 25922); [2])?
Answer: Its value is 147 ± 6 CFU.

Question: And the “mean CFU number ± S.D.” value (E. coli (ATCC 25922); [3])?
Answer: The value was 343 ± 13 CFU.

Question: What about the “CFU decrease/increase” value (E. coli (ATCC 25922); [4]) of the same compound?
Answer: The value was -6%.

Question: What about the “mean CFU number ± S.D.” value (E. coli (ATCC 25922); [4]) of the same compound?
Answer: Its value is 163 ± 18 CFU.

Question: What about the “mean CFU number ± S.D.” value (E. coli (ATCC 25922); [5]) of the same compound?
Answer: Its value is 385 ± 24 CFU.

Question: And the “mean CFU number ± S.D.” value (E. coli (ATCC 25922); [6])?
Answer: The value was 58 ± 8 CFU.

Question: And the “mean CFU number ± S.D.” value (E. coli (ATCC 25922); [7])?
Answer: The value was 198 ± 7 CFU.

Question: What about the “CFU decrease/increase” value (E. coli (ATCC 25922); [8]) of the same compound?
Answer: The value was -13%.

Question: What about the “mean CFU number ± S.D.” value (E. coli (ATCC 25922); [8]) of the same compound?
Answer: Its value is 149 ± 7 CFU.

Question: What about the “mean CFU number ± S.D.” value (E. coli (ATCC 25922); [9]) of the same compound?
Answer: The value was 151 ± 30 CFU.

Question: And the “mean CFU number ± S.D.” value (E. coli (ATCC 25922); [10])?
Answer: Its value is 17 ± 18 CFU.

Question: What about the “mean CFU number ± S.D.” value (E. coli (ATCC 25922); [11]) of the same compound?
Answer: Its value is 45 ± 18 CFU.

Question: What about the “CFU decrease/increase” value (E. coli (ATCC 25922); [12]) of the same compound?
Answer: The value was “+8%”.

Question: And the “mean CFU number ± S.D.” value (E. coli (ATCC 25922); [12])?
Answer: The value was 187 ± 12 CFU.

Question: And the “mean CFU number ± S.D.” value (E. coli (ATCC 25922); peptide alone 0.032 mg/mL, 3 h)?
Answer: The value was 749 ± 47 CFU.

Question: And the “CFU decrease/increase” value (E. coli (ATCC 25922); [13])?
Answer: The value was “+1%”.

Question: What about the “mean CFU number ± S.D.” value (E. coli (ATCC 25922); [13]) of the same compound?
Answer: The value was 174 ± 6 CFU.

Question: What about the “mean CFU number ± S.D.” value (E. coli (ATCC 25922); peptide alone 0.064 mg/mL, 3 h) of the same compound?
Answer: The value was 634 ± 10 CFU.

Question: And the “CFU decrease/increase” value (E. coli (ATCC 25922); [14])?
Answer: Its value is -15%.

Question: What about the “mean CFU number ± S.D.” value (E. coli (ATCC 25922); [14]) of the same compound?
Answer: Its value is 146 ± 17 CFU.

Question: What about the “mean CFU number ± S.D.” value (E. coli (ATCC 25922); peptide alone 0.128 mg/mL, 3 h) of the same compound?
Answer: The value was 625 ± 76 CFU.

Question: What about the “mean CFU number ± S.D.” value (E. coli (ATCC 25922); [15]) of the same compound?
Answer: Its value is 140 ± 11 CFU.

Question: And the half-life (in vitro)?
Answer: The half-life was 2.25 h.

Question: And the “CFU decrease/increase” value (C. albicans (ATCC 10231); [1])?
Answer: The value was -27.3%.

Question: And the “mean CFU number ± S.D.” value (C. albicans (ATCC 10231); [1])?
Answer: The value was 40 ± 28 CFU.

Question: What about the “mean CFU number ± S.D.” value (C. albicans (ATCC 10231); [2]) of the same compound?
Answer: The value was 1,908 ± 160 CFU.

Question: What about the “CFU decrease/increase” value (C. albicans (ATCC 10231); [3]) of the same compound?
Answer: The value was “+16%”.

Question: And the “mean CFU number ± S.D.” value (C. albicans (ATCC 10231); [3])?
Answer: Its value is 67 ± 4 CFU.

Question: What about the “CFU decrease/increase” value (C. albicans (ATCC 10231); [4]) of the same compound?
Answer: Its value is -2%.

Question: And the “mean CFU number ± S.D.” value (C. albicans (ATCC 10231); [4])?
Answer: Its value is 2,230 ± 326 CFU.

Question: And the “CFU decrease/increase” value (C. albicans (ATCC 10231); [5])?
Answer: The value was -27.3%.

Question: What about the “mean CFU number ± S.D.” value (C. albicans (ATCC 10231); [5]) of the same compound?
Answer: Its value is 40 ± 24 CFU.

Question: And the “mean CFU number ± S.D.” value (C. albicans (ATCC 10231); [6])?
Answer: Its value is 1,576 ± 112 CFU.

Question: What about the “CFU decrease/increase” value (C. albicans (ATCC 10231); [7]) of the same compound?
Answer: Its value is “+60%”.

Question: What about the “mean CFU number ± S.D.” value (C. albicans (ATCC 10231); [7]) of the same compound?
Answer: The value was 88 ± 7 CFU.

Question: What about the “mean CFU number ± S.D.” value (C. albicans (ATCC 10231); [8]) of the same compound?
Answer: The value was 1,619 ± 165 CFU.

Question: And the “CFU decrease/increase” value (C. albicans (ATCC 10231); [9])?
Answer: Its value is -27.3%.

Question: What about the “mean CFU number ± S.D.” value (C. albicans (ATCC 10231); [9]) of the same compound?
Answer: Its value is 40 ± 11 CFU.

Question: What about the “mean CFU number ± S.D.” value (C. albicans (ATCC 10231); [10]) of the same compound?
Answer: The value was 1,428 ± 24 CFU.

Question: What about the “CFU decrease/increase” value (C. albicans (ATCC 10231); [11]) of the same compound?
Answer: The value was “+31%”.

Question: And the “mean CFU number ± S.D.” value (C. albicans (ATCC 10231); [11])?
Answer: Its value is 72 ± 10 CFU.

Question: And the “mean CFU number ± S.D.” value (C. albicans (ATCC 10231); [12])?
Answer: The value was 265 ± 108 CFU.

Question: And the “mean CFU number ± S.D.” value (C. albicans (ATCC 10231); peptide alone 0.032 mg/mL, 3 h)?
Answer: Its value is 40 ± 10 CFU.

Question: And the “mean CFU number ± S.D.” value (C. albicans (ATCC 10231); [13])?
Answer: Its value is 1,789 ± 225 CFU.

Question: What about the “CFU decrease/increase” value (C. albicans (ATCC 10231); peptide alone 0.064 mg/mL, 3 h) of the same compound?
Answer: The value was -1.8%.

Question: And the “mean CFU number ± S.D.” value (C. albicans (ATCC 10231); peptide alone 0.064 mg/mL, 3 h)?
Answer: Its value is 54 ± 6 CFU.

Question: What about the “mean CFU number ± S.D.” value (C. albicans (ATCC 10231); [14]) of the same compound?
Answer: The value was 1,807 ± 433 CFU.

Question: What about the “CFU decrease/increase” value (C. albicans (ATCC 10231); peptide alone 0.128 mg/mL, 3 h) of the same compound?
Answer: Its value is -51%.

Question: What about the “mean CFU number ± S.D.” value (C. albicans (ATCC 10231); peptide alone 0.128 mg/mL, 3 h) of the same compound?
Answer: The value was 27 ± 0.6 CFU.

Question: And the “mean CFU number ± S.D.” value (C. albicans (ATCC 10231); [15])?
Answer: The value was 1,666 ± 229 CFU.
